Patent US20240132431A1, “METHOD FOR ALKYLATING ACIDIC FUNCTIONAL GROUP” (Chugai Seiyaku Kabushiki Kaisha, priority 2021, published 2024)

Molecular target: T1, Bcl-2 protein (Recombinant Human Bcl-2 Protein) (Homo sapiens, UniProt P10415)
T1 construct: purchased Novus NBP2-34889
Assay: Binding evaluation of mixture library compounds to Bcl-2 using AS-MS (affinity selection mass spectrometry)
Conditions: AS-MS, mixture library, Bcl-2, ASMS Ratio(%)=(A−C)/B×100; for ASMS ratio (%) n = 1: replicate n = 1; for ASMS ratio (%) n = 2: replicate n = 2
Outline: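 Bcl-2 binding is scored from LC/MS signal retained with protein through gel-filtration spin columns, normalised to unfiltered and protein-free controls. Incubation: 20 μM protein, […] per compound, 1 h, 23° C.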

T1 sequence (P10415 whole entry): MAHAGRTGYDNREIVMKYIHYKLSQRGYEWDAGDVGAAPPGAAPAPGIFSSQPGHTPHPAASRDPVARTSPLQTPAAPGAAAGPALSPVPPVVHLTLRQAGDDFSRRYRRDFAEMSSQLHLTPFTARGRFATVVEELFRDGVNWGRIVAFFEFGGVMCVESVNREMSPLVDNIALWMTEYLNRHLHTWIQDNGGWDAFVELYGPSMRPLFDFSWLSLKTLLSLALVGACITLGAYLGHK

Compound | ASMS ratio (%) n = 1 | ASMS ratio (%) n = 2
CCOc1cncc(-c2ccc(C(=O)N3CCN(c4ccc(C(=O)NS(=O)(=O)CC56CC7CC(CC(C7)C5)C6)cc4)CC3)c3ccccc23)c1 [B2A036-01, N-(1-Adamantylmethylsulfonyl)-4-[4-[4-(5-ethoxypyridin-3-yl)naphthalene-1-carbonyl]piperazin-1-yl]benzamide] | 2.0% | −0.4%
CCOc1cccc(-c2cc(C(=O)N3CCN(c4ccc(C(=O)NS(=O)(=O)CC56CC7CC(CC(C7)C5)C6)cc4)CC3)cc(C(C)(C)C)c2)c1 [B2A037-01, N-(1-Adamantylmethylsulfonyl)-4-[4-[3-tert-butyl-5-(3-ethoxyphenyl)benzoyl]piperazin-1-yl]benzamide] | 3.0% | 0.0%
CCOc1cncc(-c2cc(C(=O)N3CCN(c4ccc(C(=O)NS(=O)(=O)CC56CC7CC(CC(C7)C5)C6)cc4)CC3)cc(C(C)(C)C)c2)c1 [B2A038-01, N-(1-Adamantylmethylsulfonyl)-4-[4-[3-tert-butyl-5-(5-ethoxypyridin-3-yl)benzoyl]piperazin-1-yl]benzamide] | 1.8% | −3.5%
CCOc1cccc(-c2cc(C(=O)N3CCN(c4ccc(C(=O)NS(=O)(=O)CC56CC7CC(CC(C7)C5)C6)cc4)CC3)cc(C(F)(F)F)c2)c1 [B2A039-01, N-(1-Adamantylmethylsulfonyl)-4-[4-[3-(3-ethoxyphenyl)-5-(trifluoromethyl)benzoyl]piperazin-1-yl]benzamide] | 7.4% | −10.4%
CCOc1cncc(-c2cc(C(=O)N3CCN(c4ccc(C(=O)NS(=O)(=O)CC56CC7CC(CC(C7)C5)C6)cc4)CC3)cc(C(F)(F)F)c2)c1 [B2A040-01, N-(1-Adamantylmethylsulfonyl)-4-[4-[3-(5-ethoxypyridin-3-yl)-5-(trifluoromethyl)benzoyl]piperazin-1-yl]benzamide] | 0.0% | 0.0%
CCOc1cccc(C#Cc2cc(C(=O)N3CCN(c4ccc(C(=O)NS(=O)(=O)CC56CC7CC(CC(C7)C5)C6)cc4)CC3)cc(C(F)(F)F)c2)c1 [B2A041-01, N-(1-Adamantylmethylsulfonyl)-4-[4-[3-[2-(3-ethoxyphenyl)ethynyl]-5-(trifluoromethyl)benzoyl]piperazin-1-yl]benzamide] | 0.0% | −3.7%
CCOc1cncc(C#Cc2cc(C(=O)N3CCN(c4ccc(C(=O)NS(=O)(=O)CC56CC7CC(CC(C7)C5)C6)cc4)CC3)cc(C(F)(F)F)c2)c1 [B2A042-01, N-(1-Adamantylmethylsulfonyl)-4-[4-[3-[2-(5-ethoxypyridin-3-yl)ethynyl]-5-(trifluoromethyl)benzoyl]piperazin-1-yl]benzamide] | 10.1% | −0.9%
CCOc1cccc(-c2cnn(-c3cc(C(=O)N4CCN(c5ccc(C(=O)NS(=O)(=O)CC67CC8CC(CC(C8)C6)C7)cc5)CC4)cc(C(F)(F)F)c3)c2)c1 [B2A043-01, N-(1-Adamantylmethylsulfonyl)-4-[4-[3-[4-(3-ethoxyphenyl)pyrazol-1-yl]-5-(trifluoromethyl)benzoyl]piperazin-1-yl]benzamide] | 14.0% | 4.4%
CCOc1cncc(-c2cnn(-c3cc(C(=O)N4CCN(c5ccc(C(=O)NS(=O)(=O)CC67CC8CC(CC(C8)C6)C7)cc5)CC4)cc(C(F)(F)F)c3)c2)c1 [B2A044-01, N-(1-Adamantylmethylsulfonyl)-4-[4-[3-[4-(5-ethoxypyridin-3-yl)pyrazol-1-yl]-5-(trifluoromethyl)benzoyl]piperazin-1-yl]benzamide] | 0.7% | −0.2%
CCOc1cccc(-c2ccc(CN3CCN(c4ccc(C(=O)NS(=O)(=O)CC56CC7CC(CC(C7)C5)C6)cc4)CC3)cc2F)c1 [B2A051-01] | −0.3% | 3.6%

Results, then the molecule that gave them:

ASMS ratio (%) n = 1 | ASMS ratio (%) n = 2 | Compound
6.5% | −2.9% | CCOc1cccc(-c2ccccc2CN2CCN(c3ccc(C(=O)NS(=O)(=O)CC45CC6CC(CC(C6)C4)C5)cc3)CC2)c1 [B2A045-01, N-(1-Adamantylmethylsulfonyl)-4-[4-[[2-(3-ethoxyphenyl)phenyl]methyl]piperazin-1-yl]benzamide]
−2.7% | −22.1% | CCOc1cncc(-c2ccccc2CN2CCN(c3ccc(C(=O)NS(=O)(=O)CC45CC6CC(CC(C6)C4)C5)cc3)CC2)c1 [B2A046-01, N-(1-Adamantylmethylsulfonyl)-4-[4-[[2-(5-ethoxypyridin-3-yl)phenyl]methyl]piperazin-1-yl]benzamide]
9.7% | 0.4% | CCOc1cccc(-c2ccc(CN3CCN(c4ccc(C(=O)NS(=O)(=O)CC56CC7CC(CC(C7)C5)C6)cc4)CC3)cc2C)c1 [B2A047-01, N-(1-Adamantylmethylsulfonyl)-4-[4-[[4-(3-ethoxyphenyl)-3-methylphenyl]methyl]piperazin-1-yl]benzamide]
18.2% | 2.1% | CCOc1cncc(-c2ccc(CN3CCN(c4ccc(C(=O)NS(=O)(=O)CC56CC7CC(CC(C7)C5)C6)cc4)CC3)cc2C)c1 [B2A048-01, N-(1-Adamantylmethylsulfonyl)-4-[4-[[4-(5-ethoxypyridin-3-yl)-3-methylphenyl]methyl]piperazin-1-yl]benzamide]
−3.0% | 6.2% | CCOc1cccc(-c2ccc(CN3CCN(c4ccc(C(=O)NS(=O)(=O)CC56CC7CC(CC(C7)C5)C6)cc4)CC3)c(CC)c2)c1 [B2A049-01, N-(1-Adamantylmethylsulfonyl)-4-[4-[[4-(3-ethoxyphenyl)-2-ethylphenyl]methyl]piperazin-1-yl]benzamide]
−1.1% | 1.6% | CCOc1cncc(-c2ccc(CN3CCN(c4ccc(C(=O)NS(=O)(=O)CC56CC7CC(CC(C7)C5)C6)cc4)CC3)c(CC)c2)c1 [B2A050-01, N-(1-Adamantylmethylsulfonyl)-4-[4-[[4-(5-ethoxypyridin-3-yl)-2-ethylphenyl]methyl]piperazin-1-yl]benzamide]
0.0% | 0.0% | CCOc1cncc(-c2ccc(CN3CCN(c4ccc(C(=O)NS(=O)(=O)CC56CC7CC(CC(C7)C5)C6)cc4)CC3)cc2F)c1 [B2A052-01, N-(1-Adamantylmethylsulfonyl)-4-[4-[[4-(5-ethoxypyridin-3-yl)-3-fluorophenyl]methyl]piperazin-1-yl]benzamide]
0.0% | 0.0% | CCOc1cccc(-c2ccc(CN3CCN(c4ccc(C(=O)NS(=O)(=O)CC56CC7CC(CC(C7)C5)C6)cc4)CC3)c(OC)c2)c1 [B2A053-01, N-(1-Adamantylmethylsulfonyl)-4-[4-[[4-(3-ethoxyphenyl)-2-methoxyphenyl]methyl]piperazin-1-yl]benzamide]
17.5% | −0.9% | CCOc1cncc(-c2ccc(CN3CCN(c4ccc(C(=O)NS(=O)(=O)CC56CC7CC(CC(C7)C5)C6)cc4)CC3)c(OC)c2)c1 [B2A054-01, N-(1-Adamantylmethylsulfonyl)-4-[4-[[4-(5-ethoxypyridin-3-yl)-2-methoxyphenyl]methyl]piperazin-1-yl]benzamide]
